Patent US8889627B2 (Teva Pharmaceutical Industries, Ltd., priority 2011, dated 2014)

Tests used:
MOG-induced EAE mice = assay: Efficacy of laquinimod alone or in combination with fingolimod in MOG-induced EAE; format: in vivo, mice (C57BL/6); settings: for activity according to GMS compared to vehicle control: oral QD; for Duration / Onset / Mortality / GMS value / Incidence: Day 1 to 30; for Mortality: dead or moribund/total mice; for GMS value: group mean clinical score (0-6); for Incidence: sick/total mice
S1PR4 = molecular target: T1, S1PR4 (Homo sapiens, UniProt O95977); settings: cited from earlier work
T1 sequence (O95977 1-384): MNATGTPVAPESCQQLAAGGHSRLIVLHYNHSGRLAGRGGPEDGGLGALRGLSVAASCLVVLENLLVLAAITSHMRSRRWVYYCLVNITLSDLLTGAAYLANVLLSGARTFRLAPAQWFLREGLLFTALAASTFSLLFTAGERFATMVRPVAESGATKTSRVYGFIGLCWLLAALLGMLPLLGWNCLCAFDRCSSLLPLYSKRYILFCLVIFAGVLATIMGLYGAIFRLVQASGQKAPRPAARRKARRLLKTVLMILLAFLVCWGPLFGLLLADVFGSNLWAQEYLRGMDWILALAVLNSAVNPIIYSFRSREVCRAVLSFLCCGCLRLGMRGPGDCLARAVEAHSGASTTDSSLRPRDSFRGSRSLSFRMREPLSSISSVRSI

S1PR5 = S1PR5 (Homo sapiens, UniProt Q9H228); settings: cited from earlier work
Chain of S1PR5 (Q9H228 whole entry, species assumed): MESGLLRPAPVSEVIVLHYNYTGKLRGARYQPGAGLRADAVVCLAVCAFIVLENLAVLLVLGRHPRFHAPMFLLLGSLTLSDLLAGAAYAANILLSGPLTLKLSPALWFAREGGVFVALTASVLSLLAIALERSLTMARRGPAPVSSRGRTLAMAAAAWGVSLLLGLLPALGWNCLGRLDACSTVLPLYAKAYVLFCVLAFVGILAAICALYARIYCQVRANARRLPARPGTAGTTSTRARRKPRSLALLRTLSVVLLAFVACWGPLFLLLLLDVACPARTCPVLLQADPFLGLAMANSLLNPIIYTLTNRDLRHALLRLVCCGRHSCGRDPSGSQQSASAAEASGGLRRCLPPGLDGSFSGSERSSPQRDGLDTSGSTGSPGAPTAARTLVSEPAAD

CCCCCCCCc1ccc(CCC(N)(CO)CO)cc1 [Fingolimod, 2-amino-2-[2-(4-octylphenyl)ethyl]propane-1,3-diol]
activity according to GMS compared to vehicle control (MOG-induced EAE mice; fingolimod 0.3 mg/kg (sub optimal dose)): 56.3% | effectiveness against EAE (in words) (MOG-induced EAE mice; fingolimod 0.3 mg/kg alone): moderately effective | Duration (MOG-induced EAE mice; fingolimod 0.3 mg/kg oral QD): 15.0 ± 6.7 days | Onset (MOG-induced EAE mice; fingolimod 0.3 mg/kg oral QD): 16.0 ± 6.7 days | Mortality (MOG-induced EAE mice; fingolimod 0.3 mg/kg oral QD): 0/15 | GMS value (MOG-induced EAE mice; fingolimod 0.3 mg/kg oral QD): 1.4 ± 0.8 | Incidence (MOG-induced EAE mice; fingolimod 0.3 mg/kg oral QD): 13/15 | activity according to GMS compared to vehicle control (MOG-induced EAE mice; fingolimod 1 mg/kg (optimal dose)): 81.3% | Duration (MOG-induced EAE mice; fingolimod 1 mg/kg oral QD): 7.59 ± 9.1 days | Onset (MOG-induced EAE mice; fingolimod 1 mg/kg oral QD): 21.7 ± 9.3 days | Mortality (MOG-induced EAE mice; fingolimod 1 mg/kg oral QD): 0/15 | GMS value (MOG-induced EAE mice; fingolimod 1 mg/kg oral QD): 0.6 ± 0.8 | Incidence (MOG-induced EAE mice; fingolimod 1 mg/kg oral QD): 8/15

CCCCCCCCc1ccc(CCC(N)(CO)COP(=O)(O)O)cc1 (stereo not shown) [Fingolimod-phosphate]
binding affinity (in words) (S1PR4): high affinity | binding affinity (in words) (S1PR5): high affinity

CCN(C(=O)c1c(O)c2c(Cl)cccc2n(C)c1=O)c1ccccc1 [Laquinimod]
activity according to GMS compared to vehicle control (MOG-induced EAE mice; laquinimod 10 mg/kg (sub optimal dose)): 53.1% | effectiveness against EAE (in words) (MOG-induced EAE mice; laquinimod 10 mg/kg alone): moderately effective | Duration (MOG-induced EAE mice; laquinimod 10 mg/kg oral QD): 14.1 ± 6.4 days | Onset (MOG-induced EAE mice; laquinimod 10 mg/kg oral QD): 17.1 ± 6.3 days | Mortality (MOG-induced EAE mice; laquinimod 10 mg/kg oral QD): 0/15 | GMS value (MOG-induced EAE mice; laquinimod 10 mg/kg oral QD): 1.5 ± 0.8 | Incidence (MOG-induced EAE mice; laquinimod 10 mg/kg oral QD): 13/15 | activity according to GMS compared to vehicle control (MOG-induced EAE mice; laquinimod 25 mg/kg (optimal dose)): 81.1% | Duration (MOG-induced EAE mice; laquinimod 25 mg/kg oral QD): 8.1 ± 9.0 days | Onset (MOG-induced EAE mice; laquinimod 25 mg/kg oral QD): 22.9 ± 9.0 days | Mortality (MOG-induced EAE mice; laquinimod 25 mg/kg oral QD): 0/15 | GMS value (MOG-induced EAE mice; laquinimod 25 mg/kg oral QD): 0.6 ± 0.8 | Incidence (MOG-induced EAE mice; laquinimod 25 mg/kg oral QD): 7/15
